Experimental findings from patent US5583132A, “Sulfonylalkanoylamino hydroxyethylamino sulfamic acids useful as retroviral protease inhibitors” (priority 1995, dated 1996) are described below.

One series is described as follows: in vitro. The class given is cell-based. As to conditions: human, cem cells. The method, then:
Methods, 20, 309-321 (1988). Assays can be performed in 96-well tissue culture plates. […] Several wells receive culture medium without virus (uninfected control cells). […] Either azidothymidine (AZT) or dideoxyinosine (ddI) is included as a positive drug control. […] DMSO is added to all control wells at an appropriate concentration. […] To each sample is added 100 μl of 10% sodium dodecylsulfate in 0.01N HCl to lyse the cells, and samples are incubated overnight.

For a further series, the target named is T1, HIV protease (Human immunodeficiency virus type 1 group M subtype B, UniProt P04585).
T1 construct: HIV protease is diluted in the assay buffer to a final enzyme concentration of 12.3 nanomolar, based on a molecular weight of 10,780
Description: HIV protease enzyme assay. The series is classed as biochemical. From the text: The compounds of the present invention are effective HIV protease inhibitors. Utilizing an enzyme assay as described below, the compounds set forth in the examples herein disclosed inhibited the HIV enzyme. The preferred compounds of the present invention and their calculated IC50 (inhibiting concentration 50%, i.e., the concentration at which the inhibitor compound reduces enzyme activity by 50%) values are shown in Table 17. The enzyme method is described below. The substrate is 2-Ile-Nle-Phe(p-NO2)-Gln-ArgNH2. The positive control is MVT-101 (Miller, M. et al, Science, 246, 1149 (1989)] The assay conditions are as follows:
20 mM sodium phosphate, pH 6.4
The above described substrate is dissolved in DMSO, then diluted 10 fold in assay buffer. Final substrate concentration in the assay is 80 μM.
HIV protease is diluted in the assay buffer to a final enzyme concentration of 12.3 nanomolar, based on a molecular weight of 10,780.
The final concentration of DMSO is 14% and the final concentration of glycerol is 18%. The test compound is dissolved in DMSO and diluted in DMSO to 10x the test concentration; 10 μl of the enzyme preparation is added, the materials mixed and then the mixture is incubated at ambient temperature for 15 minutes. The enzyme reaction is initiated by the addition of 40 μl of substrate. The increase in fluorescence is monitored at 4 time points (0, 8, 16 and 24 minutes) at ambient temperature. Each assay is carried out in duplicate wells.

`CC(C)CN(C[C@@H](O)[C@H](Cc1ccccc1)NC(=O)OCc1ccccc1)S(=O)(=O)Nc1ccccc1` [E] came in with a CC50 at 168 h in “in vitro” of 7.5 µM. The compound `CC(C)CN(C[C@@H](O)[C@H](Cc1ccccc1)NC(=O)[C@H](C)CS(C)(=O)=O)S(=O)(=O)NC(C)(C)C` [Example 14] came in with an IC50 against HIV protease (Table 9, HIV protease enzyme assay, pH 6.4, substrate 80 μM) of 0.14 µM. `CC(C)(C)NS(=O)(=O)N(C[C@@H](O)[C@H](Cc1ccccc1)NC(=O)OCc1ccccc1)C1CCCCC1` [K] had an inhibition at 10 µM at HIV protease of 60%. Still for that read-out and setting: in the case of `CC(C)CN(C[C@@H](O)[C@H](Cc1ccccc1)NC(=O)OCc1ccccc1)S(=O)(=O)NCCOCc1ccccc1` [L] it was 38%.

Broadly, the CC50 is the concentration that lowers cell viability or growth by half. Low readings indicate greater toxicity to the cells, high ones lower toxicity to the cells. A word on the IC50: it is the midpoint of a concentration-inhibition curve. Higher therefore signals lower potency. As a reminder, the inhibition is the percentage by which the read-out fell short of the control. A lower inhibition goes with a weak effect.
